Test results reported in patent EP4631940A1, “COMPOUND TARGETING PAN-KRAS PROTEIN DEGRADATION AGENT AND USE THEREOF” (Betta Pharmaceuticals Co., Ltd., priority 2022, dated 2024).
Read-outs that look alike come from different tables or passages of the source.

Experiments:
AGS = experiment: Cell proliferation experiment (CellTiter-Glo); type: cell-based; settings: read-out: IC50(nM) AGS
KRAS G12D = KRAS G12D (Homo sapiens, UniProt P01116, G12D)
[1] = AGS, KRAS mutation type G12D, 96 h incubation

Chain of KRAS G12D (P01116 1-188 isoform P01116-2 G12D): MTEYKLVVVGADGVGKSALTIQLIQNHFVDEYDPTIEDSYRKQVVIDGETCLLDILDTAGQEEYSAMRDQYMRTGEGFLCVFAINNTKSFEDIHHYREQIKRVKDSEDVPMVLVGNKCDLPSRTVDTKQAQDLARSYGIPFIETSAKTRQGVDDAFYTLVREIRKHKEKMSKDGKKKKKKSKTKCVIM

Row | Molecule | IC50 (AGS; [1]) [nM] | IC50 (AGS) [nM] | also measured
1 | CCc1c(F)ccc2cc(O)cc(-c3ncc4c(N5CCC[C@@](C)(O)C5)nc(OCC5(CN6CCC(Oc7ccc(-c8cn([C@H](C(=O)N9C[C@H](O)C[C@H]9C(=O)N[C@@H](CO)c9ccc(-c%10scnc%10C)cc9)C(C)C)nn8)cn7)CC6)CC5)nc4c3F)c12 [Compound 171] | 13 | – | –
2 | (2S,4R)-1-((S)-2-(4-(5-((4-((1-(((7-(8-ethyl-7-fluoro-3-hydroxynaphthalen-1-yl)-8-fluoro-4-((R)-3-hydroxy-3-methylpiperidin-1-yl)pyrido[4,3-d]pyrimidin-2-yl)oxy)methyl)cyclopropyl)methyl) piperazin-1-yl)methyl)piperazin-3-yl)-1H-1,2,3-triazol-1-yl)-3-methylbutanoyl)-4-hydroxy-N-((S )-1-(4-(4-methylthiazol-5-yl)phenyl)ethyl)pyrrolidine-2-carboxamide [Compound 177] | – | 4.2 | –
3 | CCc1c(F)ccc2cc(O)cc(-c3ncc4c(N5CCC[C@@](C)(O)C5)nc(OCC5(CN6CCC(Oc7cnc(-c8cn([C@H](C(=O)N9C[C@H](O)C[C@H]9C(=O)N[C@@H](CO)c9ccc(-c%10ccnn%10CC)cc9)C(C)C)nn8)cn7)CC6)CC5)nc4c3F)c12 [Compound 172] | – | 3.6 | –
4 | (2S,4R)-1-((S)-2-(4-(3-((1-((1-((7-(8-ethyl-7-fluoro-3-hydroxynaphthalen-1-yl)-8-fluoro-4-((R)-3-hydroxy-3-methylpiperidin-1-yl)pyrido[4,3-d]pyrimidin-2-yl)oxy)methyl)cyclopropyl)methyl) piperidin-4-yl)methyl)amino)bicyclo[1.1.1]pent-1-yl)-1H-1,3-triazol-1-yl)-3-methylbutanoyl)-4-hydroxy-N-((S)-1-(4-(4-methylthiazol-5-yl)phenyl)ethyl)pyrrolidine-2-carboxamide [Compound 180] | 20 | – | –
5 | CCc1c(F)ccc2cc(O)cc(-c3ncc4c(N5CCC[C@@](C)(O)C5)nc(OCC5(CN6CCN(C7CCN(c8cc([C@H](C(=O)N9C[C@H](O)C[C@H]9C(=O)N[C@H](C)c9ccc(-c%10scnc%10C)cc9)C(C)C)on8)CC7)CC6)CC5)nc4c3F)c12 [Compound 164] | 38 | – | –
6 | (2S,4R)-1-((S)-2-(4-(5-(7-((7-(8-ethyl-7-fluoro-3-hydroxynaphthalen-1-yl)-8-fluoro-4-((R)-3-hy droxy-3-methylpiperidin-1-yl)pyrido[4,3-d]pyrimidin-2-yl)oxy)methyl)cyclopropyl)methyl)-2,7-azaspiro[3.5]nonan-2-yl)pyrazin-2-yl)-1H-1,2,3-triazol-1-yl)-3-methylbutanoyl)-4-hydroxy-N-(( S)-1-(4-methylthiazol-5-yl)phenyl)ethyl)pyrrolidine-2-carboxamide [Compound 168] | 5.6 | – | –
7 | CCc1c(F)ccc2cc(O)cc(-c3ncc4c(N5CCC[C@@](C)(O)C5)nc(OCC5(CN6CCC(c7cc([C@H](C(=O)N8C[C@H](O)C[C@H]8C(=O)N[C@@H](C)c8ccc(-c9scnc9C)cc8)C(C)C)on7)CC6)CC5)nc4c3F)c12 [Compound 147] | – | 16 | DC50 (KRAS G12D): 24 nM; Dmax (%) (KRAS G12D): 95%
8 | (3S,7aS)-7a-((7-(7-(8-ethyl-7-fluoro-3-hydroxynaphthalen-1-yl)-8-fluoro-4-((R)-3-hydroxy-3-m ethylpiperidin-1-yl)pyrido[4,3-d]pyrimidin-2-yl)pyrimidin-2-yl)oxy)methyl)-6-methylenehexahy dro-1H-pyrrolizin-3-yl)methyl-4-(((5-(R)-1-(2S,4R)-4-hydroxy-2-(((S)-1-(4-(4-methylthiazol-5-yl)phenyl)ethyl)carbamoyl)pyrrolidin-1-yl)-3-methyl-1-oxobutan-2-yl)isoxazol-3-yl)oxy)methyl )piperidine-1-carboxylate [Compound 125] | 52 | – | –
9 | (2S,4R)-1-((S)-2-(4-(1-((1-((1-(((7-(8-ethyl-7-fluoro-3-hydroxynaphthalen-1-yl)-8-fluoro-4-((R)-3-hydroxy-3-methylpiperidin-1-yl)pyrido[4,3-d]pyrimidin-2-yl)oxy)methyl)piperidin-4-yl)methy l)azetidin-3-yl)-1H-1,2,3-triazol-1-yl)-3-methylbutanoyl)-4-hydroxy-N-((S)-1-(4-(4-methylthiaz ol-5-yl)phenyl)ethyl)pyrrolidine-2-carboxamide [Compound 129] | 37 | – | –
10 | (2S,4R)-1-((S)-2-(4-(5-(1-((1-((7-(8-ethyl-7-fluoro-3-hydroxynaphthalen-1-yl)-8-fluoro-4-((R)-3 -hydroxy-3-methylpiperidin-1-yl)pyrido[4,3-d]pyrimidin-2-yl)oxy)methyl)cyclopropyl)methyl)p iperidin-4-yl)oxy)pyrimidin-2-yl)-1H-1,2,3-triazol-1-yl)-3-methylbutanoyl)-4-hydroxy-N-((S)-1-(4-hydroxyl-N-(4-(4-methylthiazol-5-yl)phenyl)ethyl)pyrrolidine-2-carboxamide [Compound 169] | 20 | – | –
11 | (2S,4R)-1-((S)-2-(4-(6-((1-((1-(((7-(8-ethyl-7-fluoro-3-hydroxynaphthalen-1-yl)-8-fluoro-4-((R)-3-hydroxy-3-methylpiperidin-1-yl)pyrido[4,3-d]pyrimidin-2-yl)oxy)methyl)cyclopropyl)methyl) -4-methylpiperidin-4-yl)oxy)piperidin-3-yl)-1H-1,2,3-triazol-1-yl)-3-methylbutanoyl)-4-hydroxy -N-((S)-1-(4-(4-methylthiazol-5-yl)phenyl)ethyl)pyrrolidine-2-carboxamide [Compound 176] | – | 33 | –
12 | CCc1c(F)ccc2cc(O)cc(-c3ccc4c(N5CCC[C@@](C)(O)C5)nc(OCC5(CN6CCC7(CC6)CN(c6cnc(-c8cn([C@H](C(=O)N9C[C@H](O)C[C@H]9C(=O)N[C@@H](C)c9ccc(-c%10scnc%10C)cc9)C(C)C)nn8)cn6)C7)CC5)nc4c3F)c12 [Compound 186] | 20 | – | –
13 | (2S,4R)-1-((S)-2-(4-(1-((1-((1-(((7-(8-ethyl-7-fluoro-3-hydroxynaphthalen-1-yl)-8-fluoro-4-((R)-3-hydroxy-3-methylpiperidin-1-yl)pyrido[4,3-d]pyrimidin-2-yl)oxy)methyl)cyclopropyl)methyl) piperidin-4-yl)methyl)-1H-pyrazol-4-yl)-1H-1,2,3-triazol-1-yl)-3-methylbutanoyl)-4-hydroxy-N-((S)-1-(4-(4-methylthiazol-5-yl)phenyl)ethyl)pyrrolidine-2-carboxamide [Compound 182] | – | 24 | –
14 | CCc1c(F)ccc2cc(O)cc(-c3ncc4c(N5CCC[C@@](C)(O)C5)nc(OCC5(CN6CCN(C7CC(c8cn([C@H](C(=O)N9C[C@H](O)C[C@H]9C(=O)N[C@@H](C)c9ccc(-c%10scnc%10C)cc9)C(C)C)nn8)C7)CC6)CC5)nc4c3F)c12 (stereo partly drawn) [Compound 165, (2S,4R)-1-((S)-2-(4-(3-(4-((1-(((7-(8-ethyl-7-fluoro-3-hydroxynaphthalen-1-yl)-8-fluoro-4-((R)-3-hydroxy-3-methylpiperidin-1-yl)pyrido[4,3-d]pyrimidin-2-yl)oxy)methyl)cyclopropyl)methyl)piperazin-1-yl)cyclobutyl)-1H-1,2,3-triazol-1-yl)-3-methylbutanoyl)-4-hydroxy-N-((S)-1-(4-(4-methylthiazol-5-yl)phenyl)ethyl)pyrrolidine-2-carboxamide] | – | – | IC50 (AGS; Homo sapiens, AGS, 96 h): 9.2 nM
15 | (2S,4R)-1-((S)-2-(4-(5-((((3R,7aR)-7a-(((7-(8-ethyl-7-fluoro-3-hydroxynaphthalen-1-yl)-8-fluor o-4-((R)-3-hydroxy-3-methylpiperidin-l-yl)pyrido[4,3-d]pyrimidin-2-yl)oxy)methyl)hexahydro-1H-pyrrolizin-3-yl)methoxy)pyrazin-2-yl)-1H-1,2,3-triazol-1-yl)-3-methylbutanoyl)-4-hydroxy-N-((S)-1-(4-(4-methylthiazol-5-yl)phenyl)ethyl)pyrrolidine-2-carboxamide [Compound 188] | 12 | – | –
16 | CCc1c(F)ccc2cc(O)cc(-c3ncc4c(N5CCC[C@@](C)(O)C5)nc(OCC5(CN6CCN(Cc7cnc(-c8cn([C@H](C(=O)N9C[C@H](O)C[C@H]9C(=O)N[C@@H](C)c9ccc(-c%10scnc%10C)cc9)C(C)C)nn8)s7)CC6)CC5)nc4c3F)c12 [Compound 187] | 7.5 | – | –
17 | (2S,4R)-1-((S)-2-(4-(6-((4-((1-(((7-(8-ethyl-7-fluoro-3-hydroxynaphthalen-1-yl)-8-fluoro-4-((R)-3-hydroxy-3-methylpiperidin-1-yl)pyrido[4,3-d]pyrimidin-2-yl)oxy)methyl)cyclopropyl)methyl) pyridin-1-yl)methyl)pyridin-3-yl)-1H-1,2,3-triazol-1-yl)-3-methylbutanoyl)-4-hydroxy-N-((S)-1-(4-(4-methylthiazol-5-yl)phenyl)ethyl)pyrrolidine-2-carboxamide [Compound 179] | – | 27 | –
18 | C#Cc1c(F)ccc2cc(O)cc(-c3ncc4c(N5CCCOCC5)nc(OC[C@]56CCCN5[C@@H](COC(=O)N5CCC7(CC5)CC(C(=O)N[C@H](C(=O)N5C[C@H](O)C[C@H]5C(=O)N[C@@H](C)c5ccc(-c8scnc8C)cc5)C(C)(C)C)C7)CC6)nc4c3F)c12 [Compound 90] | – | 83 | –
19 | CCc1c(F)ccc2cc(O)cc(-c3ncc4c(N5CCC[C@@](C)(O)C5)nc(OCC5(CN6CCC(Oc7ccc(-c8cn([C@H](C(=O)N9C[C@H](O)C[C@H]9C(=O)N[C@@H](C)c9ccc(-c%10scnc%10C)cc9)C(C)C)nn8)nn7)CC6)CC5)nc4c3F)c12 [Compound 167] | 8.8 | – | –
20 | C=C1CN2[C@H](COC(=O)N3CCN(c4cc([C@H](C(=O)N5C[C@H](O)C[C@H]5C(=O)N[C@@H](C)c5ccc(-c6scnc6C)cc5)C(C)C)on4)CC3)CC[C@@]2(COc2nc(N3CCC[C@@](C)(O)C3)c3cnc(-c4cc(O)cc5ccc(F)c(CC)c45)c(F)c3n2)C1 [Compound 110] | – | 52 | –
21 | CCc1c(F)ccc2cc(O)cc(-c3ncc4c(N5CCC[C@@](C)(O)C5)nc(OCC5(CN6CCC(Oc7ncc(-c8cn([C@H](C(=O)N9C[C@H](O)C[C@H]9C(=O)N[C@@H](C)c9ccc(-c%10scnc%10C)cc9)C(C)C)nn8)s7)CC6)CC5)nc4c3F)c12 [Compound 181] | 11 | – | –
